In patent publication US9926281B2 (priority 2014, dated 2018):
Where two headings read alike, the source gives them in different places.

What was measured:
rnADAMTS-5 (1-564-6H) = rnADAMTS-5 (1-564-6H) (Rattus norvegicus, UniProt Q6TY19); conditions: read-out: Rat ADAMTS-5 potency IC50
human ADAMTS-5 [1] = target: T1, human ADAMTS-5 (Homo sapiens (Human), UniProt Q9UNA0); conditions: read-out: hADAMTS-5 potency IC50
human TACE = human TACE (Homo sapiens (Human), UniProt P78536); conditions: read-out: TACE potency IC50
Chain of human TACE (P78536 whole entry, looked up, change not shown): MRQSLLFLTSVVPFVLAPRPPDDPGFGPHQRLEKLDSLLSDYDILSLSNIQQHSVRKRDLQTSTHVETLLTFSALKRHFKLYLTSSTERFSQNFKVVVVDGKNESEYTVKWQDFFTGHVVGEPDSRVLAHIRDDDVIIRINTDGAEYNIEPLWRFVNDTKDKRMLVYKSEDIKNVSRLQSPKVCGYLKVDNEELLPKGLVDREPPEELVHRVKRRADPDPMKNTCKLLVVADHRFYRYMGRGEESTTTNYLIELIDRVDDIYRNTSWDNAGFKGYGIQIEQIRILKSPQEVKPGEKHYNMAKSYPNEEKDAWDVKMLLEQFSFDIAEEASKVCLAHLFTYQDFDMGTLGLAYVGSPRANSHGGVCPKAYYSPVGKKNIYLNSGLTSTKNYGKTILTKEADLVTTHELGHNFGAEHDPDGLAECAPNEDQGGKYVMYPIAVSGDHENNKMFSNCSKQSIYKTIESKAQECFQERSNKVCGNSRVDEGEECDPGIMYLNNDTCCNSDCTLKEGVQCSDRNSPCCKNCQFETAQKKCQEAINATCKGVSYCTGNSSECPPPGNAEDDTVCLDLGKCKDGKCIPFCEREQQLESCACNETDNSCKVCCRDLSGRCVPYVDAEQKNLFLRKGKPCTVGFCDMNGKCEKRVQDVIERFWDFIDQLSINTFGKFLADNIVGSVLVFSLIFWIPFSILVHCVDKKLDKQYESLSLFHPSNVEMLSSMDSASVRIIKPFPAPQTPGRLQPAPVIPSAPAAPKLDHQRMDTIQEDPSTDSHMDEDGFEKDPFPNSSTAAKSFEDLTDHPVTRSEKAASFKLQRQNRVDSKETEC

human MMP13 = human MMP13 (Homo sapiens (Human), UniProt P45452); conditions: read-out: hMMP-13 potency IC50
Protocol: Human MMP13 is preactivated by incubated the enzyme in the same buffer complemented with 1 mM freshly prepared p-Aminophenylmercuric acetate (AMPA) for 1 hour at 37° C.

human ADAMTS-5 [2] = target: T1, human ADAMTS-5; conditions: read-out: hADAMTS-5 potency IC50; remark: listed apart in the source
Protocol: Finally, the fluorescence is read on the Envision (Perkin Elmer) after an incubation of 90 min at 37° C.

T1 sequence (Q9UNA0 262-930): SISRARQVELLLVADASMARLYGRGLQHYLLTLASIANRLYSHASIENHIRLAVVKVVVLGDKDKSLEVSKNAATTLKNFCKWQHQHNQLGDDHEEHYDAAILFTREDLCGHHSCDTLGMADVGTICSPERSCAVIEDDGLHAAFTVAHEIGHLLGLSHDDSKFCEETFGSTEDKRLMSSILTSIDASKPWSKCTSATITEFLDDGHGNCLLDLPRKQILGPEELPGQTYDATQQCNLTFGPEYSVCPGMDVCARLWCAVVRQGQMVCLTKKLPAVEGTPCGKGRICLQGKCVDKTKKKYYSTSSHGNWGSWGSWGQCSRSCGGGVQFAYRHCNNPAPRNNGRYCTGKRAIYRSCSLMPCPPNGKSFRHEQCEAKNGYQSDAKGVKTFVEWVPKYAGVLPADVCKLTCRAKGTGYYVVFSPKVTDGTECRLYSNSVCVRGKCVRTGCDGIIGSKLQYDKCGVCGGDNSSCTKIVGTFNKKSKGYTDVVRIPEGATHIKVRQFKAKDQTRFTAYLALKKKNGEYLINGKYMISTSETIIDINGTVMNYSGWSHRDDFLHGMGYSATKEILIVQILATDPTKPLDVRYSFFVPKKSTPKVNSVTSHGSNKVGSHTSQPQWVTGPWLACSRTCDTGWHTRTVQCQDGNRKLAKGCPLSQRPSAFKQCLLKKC

Structure (SMILES)	IC50 (rnADAMTS-5 (1-564-6H))	IC50 (human ADAMTS-5 [1])	IC50 (human TACE)	IC50 (human MMP13)	IC50 (human ADAMTS-5 [2])
O=C1NC(=O)C(CCC(=O)N2CCN(c3ccc(Cl)cc3)CC2)(c2ccccc2)N1 (centres unmarked) [compound 5, 5-[3-[4-(4-chlorophenyl)piperazin-1-yl]-3-oxo-propyl]-5-phenyl-imidazolidine-2,4-dione]	0.101 µM	0.078 µM	> 3.33 µM	–	–
Cc1cc(Cl)ccc1N1CCN(C(=O)CCC2(C)NC(=O)NC2=O)CC1 (centres unmarked) [compound 17, 5-[3-[4-(4-chloro-2-methyl-phenyl)piperazin-1-yl]-3-oxo-propyl]-5-methyl-imidazolidine-2,4-dione]	> 3.94 µM	2.84 µM	> 4 µM	> 20 µM	–
CC1(CCC(=O)N2CCN(c3ccccc3Cl)CC2)NC(=O)NC1=O (centres unmarked) [compound 19, 5-[3-[4-(2-chlorophenyl)piperazin-1-yl]-3-oxo-propyl]-5-methyl-imidazolidine-2,4-dione]	> 4 µM	> 4 µM	–	–	> 4 µM
Cc1ccc(Cl)cc1N1CCN(C(=O)CCC2(c3ccccc3)NC(=O)NC2=O)CC1 (centres unmarked) [compound 24, 5-[3-[4-(5-chloro-2-methyl-phenyl)piperazin-1-yl]-3-oxo-propyl]-5-phenyl-imidazolidine-2,4-dione]	0.132 µM	0.093 µM	0.298 µM	–	–
Cc1ccc(Cl)cc1N1CCN(C(=O)CCC2(C(C)C)NC(=O)NC2=O)CC1 (centres unmarked) [compound 33, 5-[3-[4-(5-chloro-2-methyl-phenyl)piperazin-1-yl]-3-oxo-propyl]-5-isopropyl-imidazolidine-2,4-dione]	0.178 µM	0.134 µM	0.429 µM	–	–
Cc1ccccc1N1CCN(C(=O)CCC2(C3CC3)NC(=O)NC2=O)CC1 (centres unmarked) [compound 35, 5-cyclopropyl-5-[3-[4-(o-tolyl)piperazin-1-yl]-3-oxo-propyl]imidazolidine-2,4-dione]	0.103 µM	0.099 µM	> 4 µM	> 20 µM	–
Cc1ccc(Cl)cc1N1CCN(C(=O)CCC2(c3cccnc3)NC(=O)NC2=O)CC1 (centres unmarked) [compound 46, 5-[3-[4-(5-chloro-2-methyl-phenyl)piperazin-1-yl]-3-oxo-propyl]-5-(3-pyridyl)imidazolidine-2,4-dione]	0.042 µM	0.035 µM	0.137 µM	–	–
CC1(CCC(=O)N2CCN(c3ccc(Cl)c(F)c3)CC2)NC(=O)NC1=O (centres unmarked) [compound 49, 5-[3-[4-(4-chloro-3-fluoro-phenyl)piperazin-1-yl]-3-oxo-propyl]-5-methyl-imidazolidine-2,4-dione]	0.141 µM	0.127 µM	> 20 µM	–	–
CC(C)C1(CCC(=O)N2CCN(c3cc(Cl)cc(Cl)c3)CC2)NC(=O)NC1=O (centres unmarked) [compound 54, 5-[3-[4-(3,5-dichlorophenyl)piperazin-1-yl]-3-oxo-propyl]-5-isopropyl-imidazolidine-2,4-dione]	0.091 µM	0.061 µM	2.27 µM	> 20 µM	–
O=C1NC(=O)C(CCC(=O)N2CCN(c3cccc(Cl)c3)CC2)(c2cccnc2)N1 (centres unmarked) [compound 56, 5-[3-[4-(3-chlorophenyl)piperazin-1-yl]-3-oxo-propyl]-5-(3-pyridyl)imidazolidine-2,4-dione]	0.072 µM	0.038 µM	3.19 µM	–	–
Cc1cccc(N2CCN(C(=O)CCC3(C4CC4)NC(=O)NC3=O)CC2)c1C (centres unmarked) [compound 57, 5-cyclopropyl-5-[3-[4-(2,3-dimethylphenyl)piperazin-1-yl]-3-oxo-propyl]imidazolidine-2,4-dione]	0.117 µM	0.093 µM	> 12 µM	–	–
Cc1ccccc1N1CCN(C(=O)CCC2(c3cccnc3)NC(=O)NC2=O)CC1 (centres unmarked) [compound 64, 5-[3-[4-(o-tolyl)piperazin-1-yl]-3-oxo-propyl]-5-(3-pyridyl)imidazolidine-2,4-dine]	0.165 µM	0.125 µM	3.14 µM	> 20 µM	–
Cc1ccc(Cl)cc1N1CCN(C(=O)CCC2(c3ccccn3)NC(=O)NC2=O)CC1 (centres unmarked) [compound 65, 5-[3-[4-(5-chloro-2-methyl-phenyl)piperazin-1-yl]-3-oxo-propyl]-5-(2-pyridyl)imidazolidine-2,4-dione]	0.065 µM	0.05 µM	0.056 µM	> 20 µM	–
Cc1ccc(Cl)cc1N1CCN(C(=O)CCC2(C3CCC3)NC(=O)NC2=O)CC1 (centres unmarked) [compound 71, 5-[3-[4-(5-chloro-2-methyl-phenyl)piperazin-1-yl]-3-oxo-propyl]-5-cyclobutyl-imidazolidine-2,4-dione]	0.198 µM	0.2 µM	–	–	–
O=C1NC(=O)C(CCC(=O)N2CCN(c3cccc(Cl)c3)CC2)(C2CCCCC2)N1 (centres unmarked) [compound 72, 5-[3-[4-(3-chlorophenyl)piperazin-1-yl]-3-oxo-propyl]-5-cyclohexyl-imidazolidine-2,4-dione]	0.282 µM	0.264 µM	–	–	–
O=C1NC(=O)C(CCC(=O)N2CCN(c3cccc(Cl)c3)CC2)(c2ccc(Cl)cc2)N1 (centres unmarked) [compound 74, 5-(4-chlorophenyl)-5-[3-[4-(3-chlorophenyl)piperazin-1-yl]-3-oxo-propyl]imidazolidine-2,4-dione]	0.106 µM	0.089 µM	–	2.66 µM	–
Cc1ccc(C2(CCC(=O)N3CCN(c4cc(Cl)ccc4C)CC3)NC(=O)NC2=O)cc1 (centres unmarked) [compound 77, 5-[3-[4-(5-chloro-2-methyl-phenyl)piperazin-1-yl]-3-oxo-propyl]-5-(p-tolyl)imidazolidine-2,4-dione]	0.169 µM	0.107 µM	–	–	–
Cc1ccccc1N1CCN(C(=O)CCC2(c3ccc(OCCN(C)C)cc3)NC(=O)NC2=O)CC1 (centres unmarked) [compound 81, 5-[4-(2-dimethylaminoethyloxy)phenyl]-5-[3-[4-(o-toyl)piperazin-1-yl]-3-oxo-propyl]imidazolidine-2,4-dione]	0.827 µM	0.681 µM	–	–	–
Cc1ccccc1N1CCN(C(=O)CCC2(c3ccc(CN(C)C)cc3)NC(=O)NC2=O)CC1 (centres unmarked) [compound 82, 5-[4-(dimethylaminomethyl)phenyl]-5-[3-[4-(o-toly)piperazin-1-yl]-3-oxo-propyl]imidazolidine-2,4-dione]	2.09 µM	1.74 µM	–	–	–
CC1(CCC(=O)N2CCN(c3cncc(F)c3)CC2)NC(=O)NC1=O (centres unmarked) [compound 84, 5-[3-[4-(5-fluoro-3-pyridyl)piperazin-1-yl]-3-oxo-propyl]-5-methyl-imidazolidine-2,4-dione]	0.637 µM	0.815 µM	–	–	–
Cc1cccc(N2CCN(C(=O)CCC3(c4ccccn4)NC(=O)NC3=O)CC2)c1C (centres unmarked) [compound 101, 5-[3-[4-(2,3-dimethylphenyl)piperazin-1-yl]-3-oxo-propyl]-5-(2-pyridyl)imidazolidine-2,4-dione]	0.165 µM	0.154 µM	–	–	–
Cc1ccc(Cl)cc1N1CCN(C(=O)CCC2(C(C)(C)C)NC(=O)NC2=O)CC1 (centres unmarked) [compound 108, 5-tert-butyl-5-[3-[4-(5-chloro-2-methyl-phenyl)piperazin-1-yl]-3-oxo-propyl]imidazolidine-2,4-dione]	0.41 µM	0.32 µM	–	–	–
Cc1ccc(Cl)cc1N1CCN(C(=O)CCC2(C3CCCC3)NC(=O)NC2=O)CC1 (centres unmarked) [compound 110, 5-[3-[4-(5-chloro-2-methyl-phenyl)piperazin-1-yl]-3-oxo-propyl]-5-cyclopentyl-imidazolidine-2,4-dione]	0.299 µM	0.297 µM	–	–	–
